We go through 9 compounds from patent US5348956A, “Substituted cyclopropylamino-1,3,5-triazines” (UCB S.A., priority 1991, dated 1994).

Each structure is given as a SMILES string.

The subject of data set [1] is bronchospasm induced by serotonin. Description: bronchospasmolytic activity (Konzett and Roessler), bronchospasm induced by serotonin. Format: in vivo, Dunkin-Hartley guinea-pig. To be noted: Cavia porcellus; intravenous; serotonin-induced bronchospasm; read-out: Doses (ID50), Serotonin. In outline:
(§1)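 Anesthetized (urethane), curarized, ventilated Dunkin-Hartley guinea-pigs with endotracheal pressure recorded after histamine, serotonin or acetylcholine challenge. Compound given i.v. 2 min before spasmogen, then in 3–4 increasing cumulative doses at 15-min intervals; six animals per compound and spasmogen.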

Data set [2] relates to bronchospasm induced by histamine. Description: bronchospasmolytic activity (Konzett and Roessler), bronchospasm induced by histamine. Format: in vivo, Dunkin-Hartley guinea-pig. Particulars: Cavia porcellus; intravenous; histamine-induced bronchospasm; read-out: Doses (ID50), Histamine. The gist of the method: as §1
The subject of data set [3] is bronchospasm induced by acetylcholine. Description: bronchospasmolytic activity (Konzett and Roessler), bronchospasm induced by acetylcholine. Particulars: Cavia porcellus; intravenous; acetylcholine-induced bronchospasm; read-out: Doses (ID50), Acetylcholine. Format: in vivo, Dunkin-Hartley guinea-pig. The gist of the method:
as §1

Data set [4] relates to anaphylactic release of histamine, guinea-pig lung sections. Description: inhibition of the anaphylactic release of histamine (proper effect). Particulars: Cavia porcellus, in vitro, read-out: Minimum inhibitory dose (MID). Format: cell-based, Dunkin-Hartley guinea-pigs.
Data set [5] shares this test system. Description: potentiation of the inhibition of anaphylactic histamine release by isoprenaline. Format: cell-based, Dunkin-Hartley guinea-pigs. To be noted: with isoprenaline 10^-7 mole per liter.
Data set [6] has as its system longitudinal muscles of the ileum contracted by histamine. Description: potentiation of the myorelaxing effect of isoprenaline on the ileum. Format: cell-based, Dunkin-Hartley guinea-pigs. To be noted: with isoprenaline 10^-7 mole/l; histamine 3.2 μmoles/l. In outline:
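Isolated ileal longitudinal muscle contracted by repeated histamine injections; test compound injected after wash, and the next histamine contraction compared with the mean of three preceding control contractions to give % inhibition. Potentiation cycle: % inhibition by compound alone at a given dose, then with isoprenaline co-injected, repeated per dose.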

Data set [7] concerns PMN granulocytes. Description: inhibition of the stimulation of PMN granulocytes (chemiluminescence). Format: cell-based, Rat. To be noted: Rattus norvegicus; 10^-6 mole/l; FMLP 3.2×10^-7 mole/liter; read-out: Residual chemiluminescence. From the text:
Polymorphonuclear neutrophil granulocytes (PMN) are cells which are mobilized during inflammatory phenomena and which can be stimulated by various compounds, such as, for example, formylmethionyl-leucylphenylalanine (FMLP) or prostaglandins E (PGE1). The PMN granulocytes respond to these extracellular stimuli with an activation of the oxygen metabolism with release of toxic oxygenated metabolites. An excessive response of the PMN granulocytes may be the cause of a painful inflammation and is also accompanied by a reduction in the level of cyclic adenosine monophosphate (cAMP) in these granulocytes. Consequently, compounds which inhibit the respiratory burst of PMN granulocytes or which increase the level of cAMP can be regarded as very important in the treatment of arthritis and asthma. […] Rat PMN granulocytes (5×10^6 /ml) are preincubated in a phosphate buffer ([…], pH 7.4), containing luminol at a concentration of 10^-5 mole per liter, for 15 minutes at 37° C. and then for 5 minutes in the presence of the compound to be treated at a concentration of 10^-6 mole/liter. […] The luminescence which results from the stimulation is measured by means of an LKB 1251 luminometer according to the method of […] and […] (Infection and Immunology, 37, (1982), 34-39). An experimental cycle lasts 38 seconds. The reaction is repeated 9 times for each compound to be tested and the average of the results obtained is calculated.

Data set [8] can be described thus: toxicity, Irwin's test. Format: in vivo. Particulars: i.p.; death of two animals out of three within 48 hours. Here is the method:
Progressive doses of the compound to be tested are administered intraperitoneally to groups of three mice until the lethal dose is reached (dose which causes the death of two animals out of three within 48 hours).

The test system of data set [9] is amnesia induced by scopolamine. Description: multiple-trial passive avoidance: mnemic retention, amnesia induced by scopolamine.
Protocol: To this end, the method of multiple-trial passive avoidance has been used. […] The test is carried out on male Sprague-Dawley rats (160-200 g). which are kept in standard cages throughout the experiment. The apparatus used is a transparent square cage with 35 cm sides and 25 cm high, fitted with a grid floor which can be electrified. A rubber insulating mat (10×17 cm) is placed on the floor in one of the corners of the cage.
Each animal is subjected to four tests at times 0, 4, 24 and 28 hours. In the first test (time 0), the animal is placed on the rubber mat and the time which it takes to decide to leave this position to explore the cage is recorded. After 20 seconds of exploration, the rat receives an electric shock (3 seconds duration) in the paws, causing an escape reaction. The rat is immediately removed from the apparatus and replaced in its original cage. In the course of the three subsequent tests (times: 4, 24 and 28 hours), the animal is replaced on the rubber mat and the time taken to leave this position is recorded. As soon as the four paws of the animal rest on the grid, it receives an electric shock and is removed immediately from the apparatus.
At the start of the experiment, the rats are divided into 4 homogeneous groups of 15 animals. Thirty minutes before each test, each group of animals is subjected to a predetermined treatment:
Groups 1 and 2 are used in the first experiment (learning) and groups 3 and 4 in the second experiment (mnemic retention).
The differences found are analyzed statistically by the Mann-Whitney method.
The mark [10] stands for this setting: 4 hours, 2.8 mg/kg i.p. + 0.5 mg scopolamine.
[11] abbreviates: 24 hours, 2.8 mg/kg i.p. + 0.5 mg scopolamine.
[12] abbreviates: 28 hours, 2.8 mg/kg i.p. + 0.5 mg scopolamine.
[13] abbreviates: time 0, 2.8 mg/kg i.p. + 0.5 mg scopolamine.
The mark [14] stands for this setting: 4 hours, 1.0 mg/kg i.p. + 0.5 mg scopolamine.
Setting [15] is: 24 hours, 1.0 mg/kg i.p. + 0.5 mg scopolamine.
The mark [16] stands for this setting: 28 hours, 1.0 mg/kg i.p. + 0.5 mg scopolamine.
The mark [17] stands for this setting: time 0, 1.0 mg/kg i.p. + 0.5 mg scopolamine.

Turning to `OCCN(CCO)c1nc(NC2CC2)nc(C2CC2)n1` [Compound 7], the ED50 in data set [1] worked out at 0.4 µmol/kg; in [2], 0.2 µmol/kg; in [3], 0.7 µmol/kg. Also, in [4], the minimal effective concentration came to 0.32 µM. For the same compound, the “Minimum potentiating dose (MPD)” value in data set [5] worked out at 1.0 µmol/L; in data set [6], 0.32 µmol/L. Further, the activity at 1 µM in data set [7] worked out at 54%. Besides, the Lethal dose in data set [8] is recorded as 279.3 mg/kg. The “Period of remaining on the mat, group 4” value in data set [9] (setting [10]) amounted to 34.5 s; in data set [9] (setting [11]), 94.0 s; in [9] (setting [12]), 133.0 s; in data set [9] (setting [13]), 9.8 s.

Regarding `COC1CN(c2nc(NC3CC3)nc(C3CC3)n2)C1` [Compound 14], the values for the ED50 in data set [1], in data set [2] and in [3] were 0.2 µmol/kg, 0.09 µmol/kg and 0.5 µmol/kg, respectively. In addition, the minimal effective concentration in data set [4] worked out at 1 µM. The “Minimum potentiating dose (MPD)” value in data set [5] was 0.32 µmol/L; in data set [6] it was 1.0 µmol/L. In data set [7], the activity at 1 µM is 51%. Moreover, the Lethal dose in data set [8] came out at 156.8 mg/kg. Also, the “Period of remaining on the mat, group 4” value was 36.3 s in data set [9] (4 hours, 2.6 mg/kg i.p. + 0.5 mg scopolamine); 73.9 s in data set [9] (24 hours, 2.6 mg/kg i.p. + 0.5 mg scopolamine); 139.1 s in [9] (28 hours, 2.6 mg/kg i.p. + 0.5 mg scopolamine); 11.7 s in data set [9] (time 0, 2.6 mg/kg i.p. + 0.5 mg scopolamine).

`CCCc1nc(NC2CC2)nc(N(CCO)CCO)n1` [Compound 6]: the ED50 in data set [1] stood at 0.1 µmol/kg; in data set [2], 0.1 µmol/kg; in data set [3], 0.3 µmol/kg. In addition, the minimal effective concentration in data set [4] came to 1 µM. The “Minimum potentiating dose (MPD)” value in data set [5] and in data set [6] was 1.0 µmol/L each time. In addition, in data set [7], the activity at 1 µM was determined as 55%. Besides, in data set [8], the Lethal dose came to 635.6 mg/kg. In addition, the “Period of remaining on the mat, group 4” value in [9] (4 hours, […] i.p. + 0.5 mg scopolamine) worked out at 11.7 s; in data set [9] (24 hours, […] i.p. + 0.5 mg scopolamine), 24.8 s; in [9] (28 hours, […] i.p. + 0.5 mg scopolamine), 28.7 s; in data set [9] (time 0, […] i.p. + 0.5 mg scopolamine), 5.3 s.

For the compound `CCCc1nc(NC2CC2)nc(N2CC3CCC(C2)O3)n1` [Compound 11], the ED50 stood at 0.1 µmol/kg in data set [1], 0.1 µmol/kg in data set [2] and 0.09 µmol/kg in data set [3]. Further, the minimal effective concentration in [4] came out at 1 µM. Further, the figures for the “Minimum potentiating dose (MPD)” value in data set [5] and in data set [6] were 0.32 µmol/L and 0.032 µmol/L, respectively. For the same compound, the activity at 1 µM in [7] stood at 44%. Further, the Lethal dose in data set [8] was found to be 325.8 mg/kg. The “Period of remaining on the mat, group 4” value was 21.4 s in data set [9] (4 hours, 3.3 mg/kg i.p. + 0.5 mg scopolamine); 58.6 s in data set [9] (24 hours, 3.3 mg/kg i.p. + 0.5 mg scopolamine); 93.2 s in [9] (28 hours, 3.3 mg/kg i.p. + 0.5 mg scopolamine); 10.7 s in data set [9] (time 0, 3.3 mg/kg i.p. + 0.5 mg scopolamine).

In the case of `C1CN(c2nc(NC3CC3)nc(C3CC3)n2)CCO1.Cl` [Compound 3, 2-cyclopropyl-4-cyclopropylamino-6-morpholino-1,3,5-triazine hydrochloride], the values for the ED50 in data set [1], in data set [2] and in data set [3] were 0.1 µmol/kg, 0.03 µmol/kg and 0.07 µmol/kg, respectively. Also, the minimal effective concentration in [4] turned out to be 0.032 µM. Also, the entries for the “Minimum potentiating dose (MPD)” value in [5] and in data set [6] were 0.32 µmol/L and 0.032 µmol/L, respectively. Moreover, the activity at 1 µM in data set [7] was determined as 39%. This compound also had a Lethal dose in [8] of 297.8 mg/kg. Further, the “Period of remaining on the mat, group 4” value in data set [9] (setting [14]) was found to be 35.5 s; in data set [9] (setting [15]), 105.0 s; in [9] (setting [16]), 121.0 s; in data set [9] (setting [17]) it was 6.5 s.

On to `CCCc1nc(NC2CC2)nc(N2CCC(O)CC2)n1` [Compound 5], for which the values for the ED50 in [1], in data set [2] and in [3] were 0.1 µmol/kg, 0.06 µmol/kg and 0.1 µmol/kg, respectively. Further, in [4], the minimal effective concentration worked out at 0.32 µM. Besides, the figures for the “Minimum potentiating dose (MPD)” value in [5] and in data set [6] were 3.2 µmol/L and 1.0 µmol/L, respectively. Also, the activity at 1 µM in data set [7] was 74%. The Lethal dose in data set [8] was 277.4 mg/kg. Besides, the “Period of remaining on the mat, group 4” value in data set [9] (setting [10]) is 34.2 s; in [9] (setting [11]), 35.9 s; in data set [9] (setting [12]) it was 73.3 s; in data set [9] (setting [13]) it was 14.5 s.

For `CC(C)c1nc(NC2CC2)nc(N2CC3CCC(C2)O3)n1` [Compound 12], the ED50 in data set [1] is 0.06 µmol/kg; in data set [2] it was 0.04 µmol/kg; in [3], 0.2 µmol/kg. For the same compound, the minimal effective concentration in data set [4] amounted to 0.1 µM. For the same compound, the “Minimum potentiating dose (MPD)” value stood at 0.1 µmol/L in data set [5] and 0.01 µmol/L in data set [6]. The activity at 1 µM in data set [7] is 36%. The compound also yielded a Lethal dose in data set [8] of 325.8 mg/kg. Further, the “Period of remaining on the mat, group 4” value stood at 18.0 s in data set [9] (setting [14]), 51.1 s in data set [9] (setting [15]), 94.5 s in data set [9] (setting [16]) and 3.6 s in data set [9] (setting [17]).

Consider `C1CC1Nc1nc(C2CC2)nc(N2CC3CCC(C2)O3)n1` [Compound 16], for which the values for the ED50 in [1], in data set [2] and in [3] were 0.009 µmol/kg, 0.009 µmol/kg and 0.05 µmol/kg, respectively. Moreover, the minimal effective concentration in data set [4] worked out at 0.1 µM. For the same compound, the “Minimum potentiating dose (MPD)” value in [5] and in data set [6] was 0.032 µmol/L throughout. Besides, in data set [7], the activity at 1 µM was determined as 42%. In data set [8], this compound yielded a Lethal dose of 194 mg/kg. Further, the “Period of remaining on the mat, group 4” value is 35.1 s in data set [9] (4 hours, 3.25 mg/kg i.p. + 0.5 mg scopolamine); 118.5 s in data set [9] (24 hours, 3.25 mg/kg i.p. + 0.5 mg scopolamine); 101.1 s in [9] (28 hours, 3.25 mg/kg i.p. + 0.5 mg scopolamine); 11.3 s in [9] (time 0, 3.25 mg/kg i.p. + 0.5 mg scopolamine).

On to `C1CC(c2nc(NC3CC3)nc(N3CCOCC3)n2)C1` [Compound 4, 2-cyclobutyl-4-cyclopropylamino-6-morpholino-1,3,5-triazine], for which the ED50 amounted to 0.03 µmol/kg in data set [1], 0.004 µmol/kg in [2] and 0.03 µmol/kg in data set [3]. In addition, the minimal effective concentration in [4] amounted to 0.32 µM. The “Minimum potentiating dose (MPD)” value in data set [5] was 0.1 µmol/L; in data set [6], 0.032 µmol/L. In [7], the activity at 1 µM worked out at 45%. The compound further yielded a Lethal dose in data set [8] of 165 mg/kg. The “Period of remaining on the mat, group 4” value in data set [9] (setting [10]) turned out to be 44.5 s; in data set [9] (setting [11]) it was 91.5 s; in data set [9] (setting [12]) it was 106.6 s; in data set [9] (setting [13]), 12.3 s.
